According to ChEMBL document CHEMBL5620401, “Design, synthesis, and biological evaluation of novel spirocyclic compounds as potential anti-glioblastoma agents” (Eur J Med Chem, 2023):
The source made the active and inactive calls. No cut-off for these calls is given here.

Experiments:
U-251 [1] = assay: Effect on caspase 8 protein expression in human U-251 cells at 1 to 5 uM measured after 48 hrs by Western blot analysis; assay type: functional, cell-based; conditions: dose 1-5 µM
[2] = Toxicity in BALB/c mouse xenografted with human U-251 cells assessed as pathological changes in kidney at 60 mg/kg, ip treated for 5 weeks by hematoxylin and eosin staining based assay; assay type: organism-based; conditions: in vivo, 840 h
U-251 [3] = assay: Anti-GBM effect in human U-251 cells xenografted in BALB/c mouse model assessed as reduction in number of Ki67-positive cells in the tumor at 60 mg/kg, ip treated for 5 weeks by immunohistochemical staining analysis; assay type: functional, organism-based
U-251 [4] = assay: Induction of apoptosis in human U-251 cells assessed as increase in caspase-3 expression measured after 48 hrs by Western blot analysis; assay type: functional, cell-based; conditions: dose 1-5 µM
[5] = Toxicity in BALB/c mouse xenografted with human U-251 cells assessed as pathological changes in heart at 60 mg/kg, ip treated for 5 weeks by hematoxylin and eosin staining based assay; assay type: organism-based; conditions: in vivo, 840 h
U-251 [6] = assay: Effect on GSDMD protein expression in human U-251 cells at 1 to 5 uM measured after 48 hrs by Western blot analysis; assay type: functional, cell-based; conditions: dose 1-5 µM
U-251 [7] = assay: Antiproliferative activity against human U-251 cells assessed as cell viability measured after 72 hrs by MTT assay; assay type: functional, cell-based; conditions: U-251, 72 h
[8] = Toxicity in BALB/c mouse xenografted with human U-251 cells assessed as toxicity at 60 mg/kg, ip treated for 5 weeks; assay type: organism-based; conditions: in vivo, 840 h
U-251 [9] = assay: Increase in acetylated p53 level in human U-251 cells at 1 to 5 uM by Western blot analysis; assay type: functional, cell-based; conditions: dose 1-5 µM
U-251 [10] = assay: Induction of apoptosis in human U-251 cells assessed as necrotic cells at 5 uM measured after 48 hrs by Annexin V/PI analysis (reference value: 0%); assay type: functional
U-87 MG = assay: Antiproliferative activity against human U87 cells assessed as cell viability measured after 72 hrs by MTT assay; assay type: functional, cell-based, U-87MG ATCC
U-251 [11] = assay: Induction of apoptosis in human U-251 cells assessed as increase in p53 expression measured after 48 hrs by Western blot analysis; assay type: functional, cell-based; conditions: dose 1-5 µM
U-251 [12] = assay: Induction of apoptosis in human U-251 cells assessed as viable cells at 5 uM measured after 48 hrs by Annexin V/PI analysis (reference value: 96.2%); assay type: functional; conditions: read-out: Activity
U-251 [13] = assay: Increase in acetylated p53 level in SIRT1 overexpressed human U-251 cells at 1 to 5 uM by Western blot analysis; assay type: functional, cell-based; conditions: dose 1-5 µM
[14] = Permeability coefficient of compound by lipid-PAMPA assay; assay type: ADME; conditions: read-out: Peff
U-251 [15] = assay: Induction of apoptosis in human U-251 cells assessed as early apoptotic cells at 5 uM measured after 48 hrs by Annexin V/PI analysis (reference value: 3.1%); assay type: functional
[16] = Toxicity in BALB/c mouse xenografted with human U-251 cells assessed as pathological changes in lung at 60 mg/kg, ip treated for 5 weeks by hematoxylin and eosin staining based assay; assay type: organism-based; conditions: in vivo, 840 h
U-251 [17] = assay: Increase in BCL2 homologous antagonist/killer (Bak) expression human U-251 cells measured at 1 to 5 uM after 48 hrs by Western blot analysis; assay type: functional, cell-based; conditions: dose 1-5 µM
U-251 [18] = assay: Effect on ZBP1 protein expression in human U-251 cells at 1 to 5 uM measured after 48 hrs by Western blot analysis; assay type: functional, cell-based; conditions: dose 1-5 µM
U-251 [19] = assay: Induction of apoptosis in human U-251 cells assessed as necrotic cells at 1 uM measured after 48 hrs by Annexin V/PI analysis (reference value: 0%); assay type: functional
U-251 [20] = assay: Induction of apoptosis in human U-251 cells assessed as late apoptotic cells at 1 uM measured after 48 hrs by Annexin V/PI analysis (reference value: 0.7%); assay type: functional
[21] = Toxicity in BALB/c mouse xenografted with human U-251 cells assessed as body weight change at 60 mg/kg, ip treated for 5 weeks; assay type: organism-based; conditions: in vivo, 840 h
[22] = Toxicity in BALB/c mouse xenografted with human U-251 cells assessed as pathological changes in liver at 60 mg/kg, ip treated for 5 weeks by hematoxylin and eosin staining based assay; assay type: organism-based; conditions: in vivo, 840 h
U-251 [23] = assay: Induction of apoptosis in human U-251 cells assessed as early apoptotic cells at 2.5 uM measured after 48 hrs by Annexin V/PI analysis (reference value: 3.1%); assay type: functional
U-251 [24] = assay: Induction of apoptosis in human U-251 cells assessed as early apoptotic cells at 1 uM measured after 48 hrs by Annexin V/PI analysis (reference value: 3.1%); assay type: functional
U-251 [25] = assay: Induction of apoptosis in human U-251 cells assessed as viable cells at 2.5 uM measured after 48 hrs by Annexin V/PI analysis (reference value: 96.2%); assay type: functional; conditions: read-out: Activity
U-251 [26] = assay: Decrease in SIRT1 protein expression in human U-251 cells at 1 to 5 uM by Western blot analysis; assay type: functional, cell-based; conditions: dose 1-5 µM
U-251 [27] = assay: Effect on RIPK1 protein expression in human U-251 cells at 1 to 5 uM measured after 48 hrs by Western blot analysis; assay type: functional, cell-based; conditions: dose 1-5 µM
U-251 [28] = assay: Induction of apoptosis in human U-251 cells assessed as late apoptotic cells at 2.5 uM measured after 48 hrs by Annexin V/PI analysis (reference value: 0.7%); assay type: functional
U-251 [29] = assay: Induction of apoptosis in human U-251 cells assessed as necrotic cells at 2.5 uM measured after 48 hrs by Annexin V/PI analysis (reference value: 0%); assay type: functional
U-251 [30] = assay: Effect on RIPK3 protein expression in human U-251 cells at 1 to 5 uM measured after 48 hrs by Western blot analysis; assay type: functional, cell-based; conditions: dose 1-5 µM
U-251 [31] = assay: Anti-GBM effect in human U-251 cells xenografted in BALB/c mouse model assessed as inhibition of tumor growth at 60 mg/kg, ip treated for 5 weeks; assay type: functional, organism-based
U-251 [32] = assay: Induction of apoptosis in human U-251 cells assessed as late apoptotic cells at 5 uM measured after 48 hrs by Annexin V/PI analysis (reference value: 0.7%); assay type: functional
U-251 [33] = assay: Inhibition of colony formation in human U-251 cells; assay type: functional, cell-based
U-251 [34] = assay: Decrease in SIRT1 gene expression in human U-251 cells at 5 uM measured after 48 hrs incubation by RT-qPCR analysis; assay type: functional, cell-based
U-251 [35] = assay: Induction of apoptosis in human U-251 cells assessed as increase in BCL2 homologous antagonist/killer (Bak) expression measured after 48 hrs by Western blot analysis; assay type: functional, cell-based; conditions: dose 1-5 µM
U-251 [36] = assay: Induction of apoptosis in human U-251 cells assessed as viable cells at 1 uM measured after 48 hrs by Annexin V/PI analysis (reference value: 96.2%); assay type: functional; conditions: read-out: Activity
U-251 [37] = assay: Effect on phosphorylated-[…] protein expression in human U-251 cells at 1 to 5 uM measured after 48 hrs by Western blot analysis; assay type: functional, cell-based; conditions: dose 1-5 µM
U-251 [38] = assay: Increase in caspase 3 expression human U-251 cells measured at 1 to 5 uM after 48 hrs by Western blot analysis; assay type: functional, cell-based; conditions: dose 1-5 µM
[39] = Toxicity in BALB/c mouse xenografted with human U-251 cells assessed as pathological changes in spleen at 60 mg/kg, ip treated for 5 weeks by hematoxylin and eosin staining based assay; assay type: organism-based; conditions: in vivo, 840 h

For `COc1cc(C(=O)/C=C/c2ccc(C(=O)N3CCN(Cc4ccccc4)C34COC4)cc2)cc(OC)c1OC`, the Activity (U-251 [1]) was “inactive”, the Activity [2] was “Non-Toxic” and the Activity (U-251 [3]) was “Active”. For the same compound, the Activity (U-251 [4]) was “Dose-Dependent Effect”, the Activity [5] was “Non-Toxic” and the Activity (U-251 [6]) was “inactive”. For the same compound, the IC50 (U-251 [7]) was 900 nM, the Activity [8] was “Non-Toxic” and the Activity (U-251 [9]) was “Active”. The Activity (U-251 [10]) was 0.1%, the IC50 (U-87 MG) was 2100 nM and the Activity (U-251 [11]) was “Dose-Dependent Effect”. For the same compound, the viability at 5 µM (U-251 [12]) was 14.7%, the Activity (U-251 [13]) was “inactive” and the Papp [14] was 13.1 ×10⁻⁶ cm/s. For the same compound, the Activity (U-251 [15]) was 17.7%, the Activity [16] was “Non-Toxic” and the Activity (U-251 [17]) was “inactive”. For the same compound, the Activity (U-251 [18]) was “inactive”, the Activity (U-251 [19]) was 0.2% and the Activity (U-251 [20]) was 8.2%. For the same compound, the Activity [21] was “Non-Toxic”, the Activity [22] was “Non-Toxic” and the Activity (U-251 [23]) was 16.4%. The Activity (U-251 [24]) was 11.8%, the viability at 2.5 µM (U-251 [25]) was 74.2% and the Activity (U-251 [26]) was “Active”. For the same compound, the Activity (U-251 [27]) was “inactive”, the Activity (U-251 [28]) was 9.2% and the Activity (U-251 [29]) was 0.2%. For the same compound, the Activity (U-251 [30]) was “inactive”, the Activity (U-251 [31]) was “Active” and the Activity (U-251 [32]) was 67.5%. For the same compound, the inhibition (U-251 [33]) was “Dose-Dependent Effect”, the Activity (U-251 [34]) was “Active” and the Activity (U-251 [35]) was “Dose-Dependent Effect”. The viability at 1 µM (U-251 [36]) was 79.8%, the Activity (U-251 [37]) was “inactive” and the Activity (U-251 [38]) was “inactive”. For the same compound, the Activity [39] was “Non-Toxic”.
